Laboratory results reported in article PMC5065130, “Functional Trade-Offs in Promiscuous Enzymes Cannot Be Explained by Intrinsic Mutational Robustness of the Native Activity” (PLoS Genetics, 2016).

Target: T1, wtPTE (Brevundimonas diminuta, UniProt P0A434)
T1 construct: gene opd; synthetic gene in pET-Strep vector, expressed in E. coli BL21 (DE3) with GroEL/ES, ZnCl2 in medium; clarified lysate
Experiment: absorbance at […] nm, p-nitrophenolate release, initial rate in clarified lysate
Assay type: biochemical
Conditions: 180 uM substrate; Tris-HCl pH 7.5 lysis buffer, 0.1% Triton X-100; native activity

CCOP(=O)(OCC)Oc1ccc([N+](=O)[O-])cc1 [paraoxon]
absorbance at 405 nm, p-nitrophenolate release, initial rate in clarified lysate: wtPTE catalyzes the hydrolysis of paraoxon (PTE activity).
